Series [1] deals with T1, xanthine oxidase (XO) (Bos taurus, UniProt P80457).
T1 construct: XO (from bovine milk); purchased Merck (Darmstadt, Germany); host or cells: bovine milk (natural source)
Put plainly: XO assay with xanthine as substrate (uric acid formation, HPLC-UV).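 As to all read-outs here: incubations in 0.05 mol L^−1 sodium phosphate buffer, with uric acid and remaining xanthine both quantified by HPLC-UV.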 Format: biochemical, bovine. Particulars: for IC50: XO 0.0003 U mL^−1, 8 min, 37 °C, pH 7.5, read-out: IC50, xanthine oxidation; for XO-catalyzed uric acid formation: inhibitor 5 μmol L^−1; for α = IC50 of flavonoid/IC50 of positive control, xanthine oxidation: relative to APU.

The conditions of series [2]: cited from earlier work.
Series [3] deals with T1, xanthine oxidase (XO). The series is described as follows: XO assay with 6MP as substrate (6-thiouric acid formation, HPLC-UV).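 As to all read-outs here: incubation in 0.05 mol L^−1 sodium phosphate buffer, with 6MP and 6-thiouric acid quantified by HPLC-UV and conversion taken as the product share of substrate plus product.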 Particulars: for decrease in 6-thiouric acid formation (inhibition of XO-catalyzed 6MP oxidation): inhibitor 20 μmol L^−1; for decrease in 6-thiouric acid formation (inhibition of XO-catalyzed 6MP oxidation) / IC50 / XO-catalyzed 6-thiouric acid formation: 6MP 5 μmol L^−1; for IC50: XO 0.01 U mL^−1, 25 min, 37 °C, pH 7.5, read-out: IC50, 6MP oxidation; for fold stronger inhibition than APU, 6MP assay: based on IC50 values; for XO-catalyzed 6-thiouric acid formation: inhibitor 5 μmol L^−1; for α = IC50 of flavonoid/IC50 of positive control, 6MP oxidation: relative to APU. Format: biochemical, bovine.

In series [4] the target is T1, xanthine oxidase (XO). Put plainly: Reversibility of XO inhibition (preincubation, increasing xanthine concentrations). The series is classed as biochemical, bovine. As to conditions: SBS 5 μmol L^−1, DSC and DSCS 0.5 μmol L^−1; 10 min preincubation; xanthine 5, 25, 50 μmol L^−1. Here is the method:
After 8 min incubation (700 rpm, 37 °C), the reaction was stopped, and the samples were treated in the same way as described in the previous paragraph.

Series [5] deals with T1, xanthine oxidase (XO). Put plainly: Fluorescence quenching studies of polyphenol-XO complexes. Format: binding, bovine. As to conditions: for Log K SV ± SEM (Stern–Volmer quenching constant): K SV in L mol^−1; for Log K SV ± SEM (Stern–Volmer quenching constant) / Log K ± SEM (binding constant, modified Stern–Volmer): λex 280 nm, λem 335 nm, XO 0.4 μmol L^−1, pH 7.5; for Log K ± SEM (binding constant, modified Stern–Volmer): association constant K in L mol^−1; for K (binding constant) of polyphenol–XO complex: fluorescence quenching. Here is the method: Increasing concentrations of polyphenols (0, 2, 4, 6, 8 and 10 μmol L^−1) were added to a standard amount of XO (0.4 μmol L^−1) in sodium phosphate buffer (0.05 mol L^−1, pH 7.5). Then, the emission spectra of XO were recorded using 280 nm excitation wavelength. The inner‐filter effects of silymarin components/metabolites were corrected based on the following equation[39], [41], [42]: (1) Icor=Iobs×e^Aex+Aem/2 where I cor is the corrected and I obs is the observed emission intensity; while A ex and A em are the absorbance of polyphenols at the excitation and emission wavelengths applied, respectively. Polyphenol‐induced fluorescence quenching was evaluated at 335 nm. Stern–Volmer quenching constants (K SV; unit: L mol^−1) of polyphenol–XO complexes were determined using the graphical application of the Stern–Volmer equation[43], [44], [45]: (2) I0/I=1+KSV×Q where I 0 and I are the emission signals of XO without and with the polyphenols tested, respectively, and [Q] denotes the molar concentration (mol L^−1) of the quencher (polyphenols). The binding constants (K; unit: L mol^−1) of polyphenol–XO complexes were calculated applying the modified Stern–Volmer equation[43], [44], [45]: (3) I0/I0−I=1/fa×K×1/Q+1/fa where I 0, I and [Q] have the same meaning as in Eqn (2), and f a is the fraction of the accessible fluorophore.

The conditions of series [6]: cited from earlier work. The source holds these as a separate data set.
[7] abbreviates: inhibitor 20 μmol L^−1, xanthine 5 μmol L^−1.

Each structure is given as a SMILES string. Read-outs that look alike come from different tables or passages of the source.

T1 sequence (P80457 whole entry): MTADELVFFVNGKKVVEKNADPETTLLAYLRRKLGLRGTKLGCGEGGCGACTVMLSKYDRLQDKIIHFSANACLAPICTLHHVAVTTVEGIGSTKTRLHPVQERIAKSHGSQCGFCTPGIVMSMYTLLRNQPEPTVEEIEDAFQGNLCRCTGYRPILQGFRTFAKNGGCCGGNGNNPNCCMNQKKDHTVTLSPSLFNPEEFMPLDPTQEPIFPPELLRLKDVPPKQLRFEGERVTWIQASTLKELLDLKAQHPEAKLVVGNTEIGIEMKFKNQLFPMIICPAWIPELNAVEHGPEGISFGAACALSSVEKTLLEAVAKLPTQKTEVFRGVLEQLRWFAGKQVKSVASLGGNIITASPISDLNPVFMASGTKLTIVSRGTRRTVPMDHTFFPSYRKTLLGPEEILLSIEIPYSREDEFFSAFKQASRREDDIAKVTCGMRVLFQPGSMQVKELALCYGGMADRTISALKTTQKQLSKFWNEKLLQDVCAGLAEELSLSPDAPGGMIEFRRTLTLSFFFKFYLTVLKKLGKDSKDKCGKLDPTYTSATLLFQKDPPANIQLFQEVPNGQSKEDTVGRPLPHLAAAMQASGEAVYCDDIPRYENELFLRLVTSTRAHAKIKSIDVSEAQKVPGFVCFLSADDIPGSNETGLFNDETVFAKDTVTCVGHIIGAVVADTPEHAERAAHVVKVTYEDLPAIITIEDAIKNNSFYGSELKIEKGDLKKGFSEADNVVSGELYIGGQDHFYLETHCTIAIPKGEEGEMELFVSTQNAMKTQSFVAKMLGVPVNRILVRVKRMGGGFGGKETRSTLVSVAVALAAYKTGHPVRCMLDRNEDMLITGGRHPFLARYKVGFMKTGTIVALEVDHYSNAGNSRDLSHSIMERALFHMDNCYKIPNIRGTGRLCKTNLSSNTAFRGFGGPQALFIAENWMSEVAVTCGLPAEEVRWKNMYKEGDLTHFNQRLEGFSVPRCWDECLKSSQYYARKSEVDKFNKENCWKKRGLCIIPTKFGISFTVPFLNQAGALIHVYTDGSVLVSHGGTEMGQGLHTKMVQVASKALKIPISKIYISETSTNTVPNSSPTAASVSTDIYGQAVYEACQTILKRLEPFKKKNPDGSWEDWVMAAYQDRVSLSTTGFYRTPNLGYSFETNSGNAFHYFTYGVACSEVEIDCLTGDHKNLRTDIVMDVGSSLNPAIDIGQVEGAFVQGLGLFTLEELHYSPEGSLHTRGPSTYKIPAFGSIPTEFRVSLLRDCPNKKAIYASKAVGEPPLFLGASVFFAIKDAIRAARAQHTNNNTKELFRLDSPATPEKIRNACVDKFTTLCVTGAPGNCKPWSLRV

The term inhibition denotes the relative decrease from the control value, in per cent. As for `O=S(=O)(O)Oc1cc(O)cc(C=Cc2ccc(O)cc2)c1` [R3S, resveratrol‐3‐sulfate], the inhibition at 20 µM at xanthine oxidase (XO) [1] (inhibitor 20 μmol L^−1, xanthine 5 μmol L^−1, read-out: decrease in uric acid production (inhibition of XO-catalyzed xanthine oxidation)) was determined as 27%. The peak plasma concentrations in series [2] (humans, peroral high doses (0.5–5.0 g) of RES) is 10 to 20 µmol/L. Besides, the “decrease in 6-thiouric acid formation (inhibition of XO-catalyzed 6MP oxidation)” value at xanthine oxidase (XO) [3] was “weak to moderate inhibitors”.

Broadly, the IC50 is the concentration at which inhibition is half-maximal. As to `COc1cc([C@@H]2Oc3cc([C@H]4Oc5cc(O)cc(O)c5C(=O)[C@@H]4O)ccc3O[C@H]2CO)ccc1OS(=O)(=O)O` [SBS, silybin B‐20‐O‐sulfate], the “reversibility of the inhibitory action on XO” value on xanthine oxidase (XO) [4] is given as “reversible”. Besides, on xanthine oxidase (XO) [1] (xanthine 5 μmol L^−1), the IC50 is 240 nM and the “XO-catalyzed uric acid formation” value is recorded as “almost completely abolished”. For the same molecule, the “decrease in uric acid production (inhibition of XO-catalyzed xanthine oxidation)” value at xanthine oxidase (XO) [1] (setting [7]) is reported as “more than 80%”. At xanthine oxidase (XO) [1], the “α = IC50 of flavonoid/IC50 of positive control, xanthine oxidation” value is on record as 0.92. Moreover, at xanthine oxidase (XO) [5], the “Log K SV ± SEM (Stern–Volmer quenching constant)” value is given as 4.63 ± 0.01; the “Log K ± SEM (binding constant, modified Stern–Volmer)” value was 5.05 ± 0.02; the “K (binding constant) of polyphenol–XO complex” value is given as “above 10^5 L mol^−1”. Further, at xanthine oxidase (XO) [3], the concentration for half-maximal inhibition (IC50) was 570 nM; the “fold stronger inhibition than APU, 6MP assay” value is on record as ~7 fold; the “XO-catalyzed 6-thiouric acid formation” value is “almost completely abolished”; the “α = IC50 of flavonoid/IC50 of positive control, 6MP oxidation” value was determined as 0.14. Further, the “IC50(6MP)/IC50(xanthine)” value at xanthine oxidase (XO) [3] (ratio of IC50 values with the two substrates) stood at 2.4.

With `COc1cc(C2Oc3c(O)cc(-c4oc5cc(O)cc(O)c5c(=O)c4O)cc3C2CO)ccc1OS(=O)(=O)O` (mixture of isomers) [DSCS, 2,3‐dehydrosilychristin‐19‐O‐sulfate], the “reversibility of the inhibitory action on XO” value on xanthine oxidase (XO) [4] is recorded as “reversible”. Further, at xanthine oxidase (XO) [1] (xanthine 5 μmol L^−1), the 50% inhibitory concentration (IC50) was 80 nM and the “XO-catalyzed uric acid formation” value is “almost completely abolished”. For the same molecule, the “α = IC50 of flavonoid/IC50 of positive control, xanthine oxidation” value at xanthine oxidase (XO) [1] is 0.31. Further, at xanthine oxidase (XO) [5], the “Log K SV ± SEM (Stern–Volmer quenching constant)” value stood at 4.68 ± 0.01; the “Log K ± SEM (binding constant, modified Stern–Volmer)” value is 5.12 ± 0.03; the “K (binding constant) of polyphenol–XO complex” value is given as “above 10^5 L mol^−1”. Also, at xanthine oxidase (XO) [3], the half-maximal inhibitory concentration (IC50) was determined as 210 nM; the “fold stronger inhibition than APU, 6MP assay” value is “approximately 20 fold”; the “XO-catalyzed 6-thiouric acid formation” value is reported as “almost completely abolished”; the “α = IC50 of flavonoid/IC50 of positive control, 6MP oxidation” value is given as 0.05.

For the molecule `O=C(O)[C@H]1O[C@@H](Oc2cc(O)cc(/C=C/c3ccc(O)cc3)c2)[C@H](O)[C@@H](O)[C@@H]1O` [R3G, resveratrol‐3‐glucuronide], on xanthine oxidase (XO) [1] (setting [7]), the “decrease in uric acid production (inhibition of XO-catalyzed xanthine oxidation)” value was found to be 10%. The peak plasma concentrations in series [2] (in vivo) was 10 to 20 µmol/L. Besides, the “decrease in 6-thiouric acid formation (inhibition of XO-catalyzed 6MP oxidation)” value at xanthine oxidase (XO) [3] was “not significant”.

With `Oc1ccc(/C=C/c2cc(O)cc(O)c2)cc1` [RES, resveratrol], in series [6], the oral bioavailability result was “less than 1%”. On xanthine oxidase (XO) [3], the “decrease in 6-thiouric acid formation (inhibition of XO-catalyzed 6MP oxidation)” value is listed as “weak to moderate inhibitors”.

The values above are taken from PMC11909324 (Journal of the Science of Food and Agriculture, 2024).
